Results published in patent US20240148822A1, “ASSOCIATIONS OF FOSFOMYCIN AND COLISTIN FOR USE AGAINST BIOFILM-ASSOCIATED BACTERIAL INFECTIONS” (priority 2021, published 2024).
≈ marks a conversion by molar mass, not a printed value.

What was measured:
Assay type in all cases: cell-based
[1] = system: all tested strains (preformed biofilms); experiment: MBEC, summary over all tested strains; details: colistin
Method: (§1) Fosfomycin and colistin Minimum Biofilm Eradication Concentrations (MBECs) were determined as previously described (Macia et al, mentioned above), with MBEC being defined as the lowest concentration of antibiotic that prevented visible bacterial growth in the recovery medium.

[2] = system: all tested strains (Gram-negative clinical isolates); experiment: Colistin MIC, broth microdilution, summary over all tested strains
Method: (§2) Antimicrobial susceptibility testing was performed according to Clinical and Laboratory Standard Institute guidelines [CLSI_M07 2018, CLSI_M100 2020]. In particular, colistin MICs were determined by the broth microdilution method, and fosfomycin MICs by the agar dilution method (with the addition of 25 μg/ml of glucose-6-phosphate, as recommended). […] and P. aeruginosa ATCC 27853 were used for quality control purposes.

[3] = system: S. maltophilia preformed biofilms; experiment: Biofilm susceptibility testing (Nunc-TSP lid system), MBEC; details: 24 h exposure
Method: as §1

[4] = system: K. pneumoniae preformed biofilms; experiment: as above; details: 24 h exposure
Method: as §1

[5] = system: A. baumannii preformed biofilms; experiment: as above; details: 24 h exposure
Method: as §1

[6] = system: P. aeruginosa preformed biofilms; experiment: as above; details: 24 h exposure
Method: as §1

[7] = system: P. aeruginosa; experiment: Colistin MIC, broth microdilution method (CLSI)
Method: as §2

[8] = system: K. pneumoniae; experiment: Colistin MIC, broth microdilution method (CLSI)
Method: as §2

[9] = system: S. maltophilia; experiment: Colistin MIC, broth microdilution method (CLSI)
Method: as §2

[10] = system: A. baumannii; experiment: Colistin MIC, broth microdilution method (CLSI)
Method: as §2

[11] = system: all tested strains (Gram-negative clinical isolates); experiment: Fosfomycin MIC, agar dilution, summary over all tested strains
Method: as §2

[12] = system: P. aeruginosa; experiment: Fosfomycin MIC, agar dilution method (CLSI); details: Pseudomonas aeruginosa
Method: as §2

[13] = system: K. pneumoniae; experiment: Fosfomycin MIC, agar dilution method (CLSI); details: Klebsiella pneumoniae
Method: as §2

[14] = system: S. maltophilia; experiment: Fosfomycin MIC, agar dilution method (CLSI); details: Stenotrophomonas maltophilia
Method: as §2

[15] = system: A. baumannii; experiment: Fosfomycin MIC, agar dilution method (CLSI); details: Acinetobacter baumannii
Method: as §2

[16] = strain FZ103, preformed biofilm
[17] = strain FZ105, preformed biofilm
[18] = strain FZ106, preformed biofilm
[19] = strain FZ108, preformed biofilm
[20] = strain FZ141, preformed biofilm
[21] = strain FZ139, preformed biofilm

**Q.** How did the MBEC50 [1] turn out when colistin was run?
**A.** Its MBEC50 is 512 µg/mL.

**Q.** And the MIC50 [2]?
**A.** The MIC50 was 4 μs/ml.

**Q.** What about the MIC90 [2] of the same compound?
**A.** Its MIC90 is 32 μs/ml.

**Q.** And the “Colistin MBEC” value ([3]; strain FZ6, preformed biofilm)?
**A.** The value was greater than 1024 µg/mL.

**Q.** What about the “Colistin MBEC” value ([3]; strain FZ8, preformed biofilm) of the same compound?
**A.** Its value is greater than 1024 µg/mL.

**Q.** What about the “Colistin MBEC” value ([3]; strain FZ85, preformed biofilm) of the same compound?
**A.** Its value is greater than 1024 µg/mL.

**Q.** What about the “Colistin MBEC” value ([4]; strain FZ80, preformed biofilm) of the same compound?
**A.** The value was 64 µg/mL.

**Q.** And the “Colistin MBEC” value [4, 16]?
**A.** The value was 64 µg/mL.

**Q.** And the “Colistin MBEC” value [4, 17]?
**A.** The value was 256 µg/mL.

**Q.** And the “Colistin MBEC” value [4, 18]?
**A.** Its value is 256 µg/mL.

**Q.** And the “Colistin MBEC” value [4, 19]?
**A.** The value was greater than 1024 µg/mL.

**Q.** What about the “Colistin MBEC” value [4, 20] of the same compound?
**A.** The value was 8 µg/mL.

**Q.** And the “Colistin MBEC” value ([5]; strain FZ1, preformed biofilm)?
**A.** The value was 64 µg/mL.

**Q.** And the “Colistin MBEC” value ([5]; strain FZ2, preformed biofilm)?
**A.** Its value is greater than 1024 µg/mL.

**Q.** And the “Colistin MBEC” value ([5]; strain FZ83, preformed biofilm)?
**A.** The value was 128 µg/mL.

**Q.** What about the “Colistin MBEC” value ([6]; strain FZ18, preformed biofilm) of the same compound?
**A.** The value was greater than 1024 µg/mL.

**Q.** And the “Colistin MBEC” value ([6]; strain FZ34, preformed biofilm)?
**A.** Its value is greater than 1024 µg/mL.

**Q.** And the “Colistin MBEC” value ([6]; strain FZ45, preformed biofilm)?
**A.** Its value is greater than 1024 µg/mL.

**Q.** What about the “Colistin MBEC” value ([6]; strain FZ98, preformed biofilm) of the same compound?
**A.** Its value is greater than 1024 µg/mL.

**Q.** And the “Colistin MBEC” value [6, 21]?
**A.** Its value is greater than 1024 µg/mL.

**Q.** And the “Colistin MIC” value ([7]; strain FZ18)?
**A.** The value was 4 mg/L.

**Q.** What about the “Colistin MIC” value ([7]; strain FZ34) of the same compound?
**A.** Its value is 4 mg/L.

**Q.** And the “Colistin MIC” value ([7]; strain FZ45)?
**A.** The value was 4 mg/L.

**Q.** What about the “Colistin MIC” value ([7]; strain FZ98) of the same compound?
**A.** Its value is 512 mg/L.

**Q.** What about the “Colistin MIC” value ([7]; strain FZ139) of the same compound?
**A.** The value was 4 mg/L.

**Q.** What about the “Colistin MIC” value ([8]; strain FZ80) of the same compound?
**A.** The value was 0.5 mg/L.

**Q.** And the “Colistin MIC” value ([8]; strain FZ103)?
**A.** Its value is 8 mg/L.

**Q.** And the “Colistin MIC” value ([8]; strain FZ105)?
**A.** The value was 128 mg/L.

**Q.** What about the “Colistin MIC” value ([8]; strain FZ106) of the same compound?
**A.** The value was 32 mg/L.

**Q.** What about the “Colistin MIC” value ([8]; strain FZ108) of the same compound?
**A.** Its value is 32 mg/L.

**Q.** What about the “Colistin MIC” value ([8]; strain FZ141) of the same compound?
**A.** Its value is 2 mg/L.

**Q.** What about the “Colistin MIC” value ([9]; strain FZ6) of the same compound?
**A.** The value was 4 mg/L.

**Q.** What about the “Colistin MIC” value ([9]; strain FZ8) of the same compound?
**A.** Its value is 4 mg/L.

**Q.** And the “Colistin MIC” value ([9]; strain FZ85)?
**A.** The value was 16 mg/L.

**Q.** And the “Colistin MIC” value ([10]; strain FZ1)?
**A.** The value was 0.5 mg/L.

**Q.** And the “Colistin MIC” value ([10]; strain FZ2)?
**A.** The value was 1 mg/L.

**Q.** What about the “Colistin MIC” value ([10]; strain FZ83) of the same compound?
**A.** The value was 8 mg/L.

**Q.** Which results are given for `C[C@@H]1O[C@@H]1P(=O)(O)O` [Fosfomycin, fosfomycin]?
**A.** MIC50 [11]: 64 μs/m1; MIC90 [11]: > 1024 μs/ml; MIC ([12]; strain FZ18): 64 mg/L (≈ 464 µM); MIC ([12]; strain FZ34): > 1020 mg/L; MIC ([12]; strain FZ45): > 1020 mg/L; MIC ([12]; strain FZ98): 64 mg/L (≈ 464 µM); MIC ([12]; strain FZ139): 8 mg/L (≈ 57.9 µM); MIC ([13]; strain FZ80): 128 mg/L (≈ 927 µM); MIC ([13]; strain FZ103): 32 mg/L (≈ 232 µM); MIC ([13]; strain FZ105): 16 mg/L (≈ 116 µM); MIC ([13]; strain FZ106): 64 mg/L (≈ 464 µM); MIC ([13]; strain FZ108): 128 mg/L (≈ 927 µM); MIC ([13]; strain FZ141): ≤ 0.25 mg/L; MIC ([14]; strain FZ6): 64 mg/L (≈ 464 µM); MIC ([14]; strain FZ8): 128 mg/L (≈ 927 µM); MIC ([14]; strain FZ85): 32 mg/L (≈ 232 µM); MIC ([15]; strain FZ1): 512 mg/L (≈ 3710 µM); MIC ([15]; strain FZ2): > 1020 mg/L; MIC ([15]; strain FZ83): 64 mg/L (≈ 464 µM); Fosfomycin MBEC ([3]; strain FZ6, preformed biofilm): >1024 µg/mL; Fosfomycin MBEC ([3]; strain FZ8, preformed biofilm): >1024 µg/mL; Fosfomycin MBEC ([3]; strain FZ85, preformed biofilm): >1024 µg/mL; Fosfomycin MBEC ([4]; strain FZ80, preformed biofilm): >1024 µg/mL; Fosfomycin MBEC [4, 16]: >1024 µg/mL; Fosfomycin MBEC [4, 17]: >1024 µg/mL; Fosfomycin MBEC [4, 18]: >1024 µg/mL; Fosfomycin MBEC [4, 19]: >1024 µg/mL; Fosfomycin MBEC [4, 20]: 4 µg/mL; Fosfomycin MBEC ([5]; strain FZ1, preformed biofilm): >1024 µg/mL; Fosfomycin MBEC ([5]; strain FZ2, preformed biofilm): >1024 µg/mL; Fosfomycin MBEC ([5]; strain FZ83, preformed biofilm): >1024 µg/mL; Fosfomycin MBEC ([6]; strain FZ18, preformed biofilm): >1024 µg/mL; Fosfomycin MBEC ([6]; strain FZ34, preformed biofilm): >1024 µg/mL; Fosfomycin MBEC ([6]; strain FZ45, preformed biofilm): >1024 µg/mL; Fosfomycin MBEC ([6]; strain FZ98, preformed biofilm): >1024 µg/mL; Fosfomycin MBEC [6, 21]: >1024 µg/mL
